# The source made the active and inactive calls.
# Columns and labels:
# [1] = target: Peroxisome proliferator-activated receptor gamma/Nuclear receptor coactivator 1 (Homo sapiens, UniProt P37231); test: TR-FRET dose response biochemical High Throughput Screening assay for agonists of the steroid receptor coactivator 1 (SRC-1) recruitment by the peroxisome proliferator-activated receptor gamma (PPAR gamma): non-selective agonists. [Related pubchem assays (depositor defined):AID1300, AID1808, AID504735, AID631]; assay type: protein assay
# [2] = target: Peroxisome proliferator-activated receptor gamma/Nuclear receptor coactivator 2 (Homo sapiens, UniProt P37231); test: (§1) TR-FRET dose response biochemical High Throughput Screening assay for agonists of the steroid receptor coactivator 2 (SRC-2) recruitment by the peroxisome proliferator-activated receptor gamma (PPAR gamma): non-selective agonists. [Related pubchem assays: 1297, 1032 ]; assay type: functional
# [3] = target: Peroxisome proliferator-activated receptor gamma/Nuclear receptor coactivator 3 (Homo sapiens, UniProt P37231); test: as §1, with “3 (SRC-3)” for “2 (SRC-2)”, “1301 (Confirmation screen.), 1048 (Primary screen.)]” for “1297, 1032 ]”; assay type: functional
# HEK293 = test: EBV LMP1 TES2 canonical NF-kB signalling blockers – cell-based, HEK293, luciferase, cherry-pick, dose response (AID 588343); assay type: functional; settings: Homo sapiens
# [4] = target: T1, Epstein-Barr nuclear antigen 1 (Epstein-Barr virus (strain B95-8) (HHV-4) (Human herpesvirus 4), UniProt P03211); test: inhibition of EBV nuclear antigen 1 DNA binding – biochemical, fluorescence polarization, 1536-well, dose response (AID 2381); parameters: species or system human gammaherpesvirus 4;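 note: fluorescence polarization of a Cy5 DNA probe bound by EBNA-1 protein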
# T1 sequence (P03211 whole entry): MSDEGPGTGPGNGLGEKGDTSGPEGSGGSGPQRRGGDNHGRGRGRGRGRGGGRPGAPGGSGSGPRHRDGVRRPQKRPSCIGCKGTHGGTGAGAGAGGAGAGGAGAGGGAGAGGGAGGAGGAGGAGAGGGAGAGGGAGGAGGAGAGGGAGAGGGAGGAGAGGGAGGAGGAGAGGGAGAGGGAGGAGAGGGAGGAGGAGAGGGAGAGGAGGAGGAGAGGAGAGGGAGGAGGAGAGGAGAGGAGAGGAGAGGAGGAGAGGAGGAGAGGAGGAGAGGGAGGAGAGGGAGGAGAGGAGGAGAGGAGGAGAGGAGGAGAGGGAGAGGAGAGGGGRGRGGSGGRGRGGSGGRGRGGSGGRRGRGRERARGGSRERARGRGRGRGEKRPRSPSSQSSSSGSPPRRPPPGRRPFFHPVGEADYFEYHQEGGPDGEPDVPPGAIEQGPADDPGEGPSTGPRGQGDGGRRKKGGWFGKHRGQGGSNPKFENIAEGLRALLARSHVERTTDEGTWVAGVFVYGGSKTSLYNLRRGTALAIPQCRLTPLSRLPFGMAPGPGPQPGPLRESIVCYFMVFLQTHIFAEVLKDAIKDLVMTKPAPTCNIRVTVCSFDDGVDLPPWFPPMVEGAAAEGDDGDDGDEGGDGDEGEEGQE
# [5] = target: T2, Lytic switch protein BZLF1 (Epstein-Barr virus (strain B95-8) (HHV-4) (Human herpesvirus 4), UniProt P03206); test: inhibition of BZLF1 ZTA DNA binding – biochemical, fluorescence polarization, Epstein-Barr virus, 1536-well, counter-screen for EBNA-1 inhibitor project, dose response (AID 2377); parameters: species or system human gammaherpesvirus 4;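 note: fluorescence polarization of Cy5-labelled ZRE DNA probe bound by purified Zta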
# T2 sequence (P03206 whole entry): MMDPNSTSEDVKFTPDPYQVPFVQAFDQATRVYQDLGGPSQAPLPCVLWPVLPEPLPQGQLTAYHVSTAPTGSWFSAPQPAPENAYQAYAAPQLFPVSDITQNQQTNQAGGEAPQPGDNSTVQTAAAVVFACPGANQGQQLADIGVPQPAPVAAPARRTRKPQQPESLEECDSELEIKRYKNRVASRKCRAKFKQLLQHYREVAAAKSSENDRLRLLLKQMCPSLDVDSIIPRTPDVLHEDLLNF
# Cytochrome P450 2D6 = Cytochrome P450 2D6 (Homo sapiens, UniProt P10635);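 note: CYP2D6 member of a cytochrome P450 panel assay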
# [6] = target: DNA dC->dU-editing enzyme APOBEC-3A (Homo sapiens, UniProt P31941); test: Dose Response confirmation of small molecule APOBEC3A DNA Deaminase Inhibitors via a fluorescence-based single-stranded DNA deaminase assay. [Related pubchem assays (depositor defined):AID493011, AID493024]; assay type: functional
# [7] = target: DNA dC->dU-editing enzyme APOBEC-3G (Homo sapiens, UniProt Q9HC16); assay type: functional;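 note: Dose-response counterscreen measuring inhibition of APOBEC3G DNA deaminase activity, run while confirming APOBEC3A inhibitors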
# Vero [8] = test: cells; assay type: functional, cell-based; settings: Chlorocebus sabaeus
# Vero [9] = test: cells; assay type: functional; settings: Chlorocebus sabaeus
# Paired box protein Pax-8 = Paired box protein Pax-8 (Homo sapiens, UniProt Q06710); test: PAX8 transcriptional activity inhibition in RMG-I – RMG-I cells, luciferase, cherry-pick, dose response (AID 687027); assay type: functional, cell-based;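 note: luciferase reporter driven by Pax8 target thyroperoxidase promoter measured by SteadyGlo luminescence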
# [10] = HEK-293T viability loss after treatment – luminescence, T-cell screen hits, cytotoxicity control for TCR NF-kB inhibitor project, dose response (AID 489026); assay type: functional, cell-based;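 note: cells exposed to compound about 14 hours before the viability readout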
# [11] = microbe, parasite or virus in culture; assay type: functional; settings: Mycobacterium tuberculosis
# CAAX prenyl protease 2 = target: T3, CAAX prenyl protease 2 (Saccharomyces cerevisiae S288c, UniProt Q03530); assay type: biochemical
# T3 sequence (Q03530 whole entry): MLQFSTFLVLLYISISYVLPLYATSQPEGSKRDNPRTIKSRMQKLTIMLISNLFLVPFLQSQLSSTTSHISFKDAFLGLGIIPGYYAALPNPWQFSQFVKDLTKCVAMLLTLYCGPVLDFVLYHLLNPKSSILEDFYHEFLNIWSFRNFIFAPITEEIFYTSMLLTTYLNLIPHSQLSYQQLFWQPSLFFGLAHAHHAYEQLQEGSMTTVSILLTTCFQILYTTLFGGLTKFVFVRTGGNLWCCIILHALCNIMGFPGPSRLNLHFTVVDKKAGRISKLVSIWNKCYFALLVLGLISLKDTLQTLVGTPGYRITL
# [12] = target: T4, Type-1 angiotensin II receptor (Homo sapiens, UniProt P30556); test: antagonism of angiotensin II type 1 receptor – cell-based, uHTS hits, selectivity assay for APJ receptor antagonist project, dose response (AID 463214); assay type: functional;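 note: antagonist potency against angiotensin II stimulated AT1 response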
# T4 sequence (P30556 whole entry): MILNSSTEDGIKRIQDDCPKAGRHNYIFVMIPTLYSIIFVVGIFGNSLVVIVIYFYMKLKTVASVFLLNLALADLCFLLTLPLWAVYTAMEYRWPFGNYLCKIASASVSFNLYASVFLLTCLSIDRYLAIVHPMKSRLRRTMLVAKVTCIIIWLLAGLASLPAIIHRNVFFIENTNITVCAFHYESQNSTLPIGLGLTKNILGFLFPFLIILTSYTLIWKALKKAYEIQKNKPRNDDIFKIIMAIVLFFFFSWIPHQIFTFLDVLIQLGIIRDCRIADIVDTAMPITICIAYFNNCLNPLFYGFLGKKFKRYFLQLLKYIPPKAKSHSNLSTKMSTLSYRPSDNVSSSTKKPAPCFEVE
# Beta-galactosidase = Beta-galactosidase (Escherichia coli, UniProt Q8VNN2); test: PubChem AID 485352; assay type: functional
# [13] = NIH3T3 cell viability loss – ATP luminescence, mouse fibroblasts, counter-screen, dose response (AID 2010); assay type: functional, cell-based;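 note: cells exposed to compound for about 90 hours before reading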
# [14] = Trypanosoma cruzi growth suppression in host cells – NIH3T3 host cells, beta-gal luminescence, confirmation (AID 2044); assay type: functional, cell-based;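 note: intracellular parasites grown in NIH/3T3 mouse fibroblasts as host cells; luminescent beta-galactosidase reporter signal from transgenic T. cruzi replicating inside host cells; inhibitors lower the luminescence signal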
# [15] = target: T5, Heat shock factor protein 1 (Mus musculus, UniProt P38532); test: enhancement of HSF1-driven luciferase signal – cell-based, NIH3T3, luminescence, dose retest, confirmation (AID 435004); assay type: functional;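 note: stress induced by proteasome inhibitor MG132 added 30 min after compound; luciferase reporter driven by HSF1 response element in NIH3T3 cells; actives raise luminescence as potentiators of the MG132 stress response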
# T5 sequence (P38532 whole entry): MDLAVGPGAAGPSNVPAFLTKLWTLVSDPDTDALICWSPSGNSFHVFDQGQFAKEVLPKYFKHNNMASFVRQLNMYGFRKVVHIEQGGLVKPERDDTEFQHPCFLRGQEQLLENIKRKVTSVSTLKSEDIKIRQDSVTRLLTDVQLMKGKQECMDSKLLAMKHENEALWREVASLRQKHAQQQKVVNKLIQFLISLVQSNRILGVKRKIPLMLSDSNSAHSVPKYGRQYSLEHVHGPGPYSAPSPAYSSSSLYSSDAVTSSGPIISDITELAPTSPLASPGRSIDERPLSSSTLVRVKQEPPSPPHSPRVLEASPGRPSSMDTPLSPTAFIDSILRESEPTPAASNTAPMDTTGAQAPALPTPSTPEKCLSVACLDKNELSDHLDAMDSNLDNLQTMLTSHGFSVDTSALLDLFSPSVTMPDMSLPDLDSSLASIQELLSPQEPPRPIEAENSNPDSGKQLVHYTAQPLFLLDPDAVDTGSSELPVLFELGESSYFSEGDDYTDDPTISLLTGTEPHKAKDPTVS
# [16] = Luminescence Cell-Based Dose Retest to Confirm Inhibitors of Cancer Stem Cells. [Related pubchem assays (depositor defined):AID2717, AID2721]; assay type: functional; settings: Homo sapiens
# Prothrombin = Prothrombin (Homo sapiens, UniProt P00734); test: Thrombin 1536 HTS Dose Response Confirmation. [Related pubchem assays: 1046 (Thrombin 1536 HTS; hits were confirmed in this assay)]; assay type: functional
# [17] = target: Luciferin 4-monooxygenase (Photinus pyralis, UniProt P08659); test: inhibition of purified Photinus pyralis luciferase – biochemical, luminescence, dose response (AID 1891)
# [18] = DRD fibroblast viability loss – cell-based, non-viral oncogenic, luminescence, dose response (AID 1934); assay type: functional; settings: Homo sapiens
# [19] = Luminescence Cell-Based Dose Confirmation HTS to Identify Inhibitors of Platelet Dense Granule Release. [Related pubchem assays: 1663 (Primary HTS), 1678 (Summary of Project)]; assay type: functional
# BJ [20] = test: cells; assay type: functional, cell-based; settings: Homo sapiens
# BJ [21] = test: BJ-TERT-LT-ST fibroblast viability loss – cell-based, RAS-independent, luminescence, dose response (AID 1935); assay type: functional; settings: Homo sapiens;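 note: BJ fibroblasts immortalized with TERT plus LT and ST oncogenes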
# BJ [22] = test: BJ-TERT fibroblast viability loss – cell-based, RAS-independent, luminescence, dose response (AID 1933); assay type: functional; settings: Homo sapiens
# Peroxisome proliferator-activated receptor gamma/Nuclear receptor coactivator 3, sequence (P37231 whole entry): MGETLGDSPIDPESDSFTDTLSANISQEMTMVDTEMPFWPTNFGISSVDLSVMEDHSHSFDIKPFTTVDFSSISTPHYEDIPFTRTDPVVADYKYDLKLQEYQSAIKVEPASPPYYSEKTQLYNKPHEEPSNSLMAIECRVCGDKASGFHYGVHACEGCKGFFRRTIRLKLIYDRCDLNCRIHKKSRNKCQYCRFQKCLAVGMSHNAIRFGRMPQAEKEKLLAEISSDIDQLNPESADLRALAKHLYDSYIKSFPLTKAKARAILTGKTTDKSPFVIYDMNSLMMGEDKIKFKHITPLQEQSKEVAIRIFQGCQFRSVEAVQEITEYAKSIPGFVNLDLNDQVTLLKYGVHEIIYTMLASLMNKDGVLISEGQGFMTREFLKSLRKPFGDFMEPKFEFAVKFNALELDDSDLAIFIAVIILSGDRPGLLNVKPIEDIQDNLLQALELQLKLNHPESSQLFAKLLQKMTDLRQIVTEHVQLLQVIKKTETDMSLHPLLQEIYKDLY
# Peroxisome proliferator-activated receptor gamma/Nuclear receptor coactivator 3, sequence (Q9Y6Q9 whole entry, further chain): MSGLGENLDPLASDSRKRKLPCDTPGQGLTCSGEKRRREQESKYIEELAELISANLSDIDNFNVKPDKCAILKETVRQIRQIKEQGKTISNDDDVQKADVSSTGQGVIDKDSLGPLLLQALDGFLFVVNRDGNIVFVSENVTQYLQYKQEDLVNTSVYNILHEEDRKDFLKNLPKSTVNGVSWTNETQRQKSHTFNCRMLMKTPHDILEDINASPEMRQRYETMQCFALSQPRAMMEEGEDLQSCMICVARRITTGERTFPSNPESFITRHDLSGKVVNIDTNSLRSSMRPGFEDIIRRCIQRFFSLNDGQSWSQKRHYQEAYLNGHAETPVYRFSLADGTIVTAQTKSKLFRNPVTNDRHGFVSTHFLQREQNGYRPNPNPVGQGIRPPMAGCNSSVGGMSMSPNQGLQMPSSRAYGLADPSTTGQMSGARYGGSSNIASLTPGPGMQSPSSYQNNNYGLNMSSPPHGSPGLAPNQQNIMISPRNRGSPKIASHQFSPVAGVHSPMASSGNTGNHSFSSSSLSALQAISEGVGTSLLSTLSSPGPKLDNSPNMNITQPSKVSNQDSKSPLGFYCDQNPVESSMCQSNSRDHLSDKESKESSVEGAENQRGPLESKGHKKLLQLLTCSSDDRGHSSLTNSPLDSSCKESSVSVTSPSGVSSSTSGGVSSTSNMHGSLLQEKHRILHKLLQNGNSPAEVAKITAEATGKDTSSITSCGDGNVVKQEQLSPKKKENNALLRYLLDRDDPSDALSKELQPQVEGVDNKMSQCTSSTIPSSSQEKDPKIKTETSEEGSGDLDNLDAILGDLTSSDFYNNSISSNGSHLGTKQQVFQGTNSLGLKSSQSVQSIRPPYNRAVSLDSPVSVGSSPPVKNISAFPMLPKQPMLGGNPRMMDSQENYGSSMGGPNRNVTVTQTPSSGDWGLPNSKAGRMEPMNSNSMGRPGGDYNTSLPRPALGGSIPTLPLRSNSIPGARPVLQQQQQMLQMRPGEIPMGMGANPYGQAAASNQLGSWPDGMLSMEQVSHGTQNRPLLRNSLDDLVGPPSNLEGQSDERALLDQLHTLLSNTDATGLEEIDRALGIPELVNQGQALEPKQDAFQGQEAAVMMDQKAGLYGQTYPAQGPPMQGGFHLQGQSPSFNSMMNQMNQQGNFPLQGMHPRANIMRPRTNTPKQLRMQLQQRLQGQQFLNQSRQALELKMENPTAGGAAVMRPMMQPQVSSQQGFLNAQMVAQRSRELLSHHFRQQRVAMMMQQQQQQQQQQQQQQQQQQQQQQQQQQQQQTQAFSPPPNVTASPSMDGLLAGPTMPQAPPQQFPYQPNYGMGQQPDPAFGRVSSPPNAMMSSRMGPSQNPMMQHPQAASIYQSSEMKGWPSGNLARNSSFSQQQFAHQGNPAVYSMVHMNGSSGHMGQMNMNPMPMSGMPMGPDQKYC
# Peroxisome proliferator-activated receptor gamma/Nuclear receptor coactivator 2, sequence (P37231 whole entry): as the sequence (P37231 whole entry) above
# Peroxisome proliferator-activated receptor gamma/Nuclear receptor coactivator 2, sequence (Q15596 whole entry, further chain): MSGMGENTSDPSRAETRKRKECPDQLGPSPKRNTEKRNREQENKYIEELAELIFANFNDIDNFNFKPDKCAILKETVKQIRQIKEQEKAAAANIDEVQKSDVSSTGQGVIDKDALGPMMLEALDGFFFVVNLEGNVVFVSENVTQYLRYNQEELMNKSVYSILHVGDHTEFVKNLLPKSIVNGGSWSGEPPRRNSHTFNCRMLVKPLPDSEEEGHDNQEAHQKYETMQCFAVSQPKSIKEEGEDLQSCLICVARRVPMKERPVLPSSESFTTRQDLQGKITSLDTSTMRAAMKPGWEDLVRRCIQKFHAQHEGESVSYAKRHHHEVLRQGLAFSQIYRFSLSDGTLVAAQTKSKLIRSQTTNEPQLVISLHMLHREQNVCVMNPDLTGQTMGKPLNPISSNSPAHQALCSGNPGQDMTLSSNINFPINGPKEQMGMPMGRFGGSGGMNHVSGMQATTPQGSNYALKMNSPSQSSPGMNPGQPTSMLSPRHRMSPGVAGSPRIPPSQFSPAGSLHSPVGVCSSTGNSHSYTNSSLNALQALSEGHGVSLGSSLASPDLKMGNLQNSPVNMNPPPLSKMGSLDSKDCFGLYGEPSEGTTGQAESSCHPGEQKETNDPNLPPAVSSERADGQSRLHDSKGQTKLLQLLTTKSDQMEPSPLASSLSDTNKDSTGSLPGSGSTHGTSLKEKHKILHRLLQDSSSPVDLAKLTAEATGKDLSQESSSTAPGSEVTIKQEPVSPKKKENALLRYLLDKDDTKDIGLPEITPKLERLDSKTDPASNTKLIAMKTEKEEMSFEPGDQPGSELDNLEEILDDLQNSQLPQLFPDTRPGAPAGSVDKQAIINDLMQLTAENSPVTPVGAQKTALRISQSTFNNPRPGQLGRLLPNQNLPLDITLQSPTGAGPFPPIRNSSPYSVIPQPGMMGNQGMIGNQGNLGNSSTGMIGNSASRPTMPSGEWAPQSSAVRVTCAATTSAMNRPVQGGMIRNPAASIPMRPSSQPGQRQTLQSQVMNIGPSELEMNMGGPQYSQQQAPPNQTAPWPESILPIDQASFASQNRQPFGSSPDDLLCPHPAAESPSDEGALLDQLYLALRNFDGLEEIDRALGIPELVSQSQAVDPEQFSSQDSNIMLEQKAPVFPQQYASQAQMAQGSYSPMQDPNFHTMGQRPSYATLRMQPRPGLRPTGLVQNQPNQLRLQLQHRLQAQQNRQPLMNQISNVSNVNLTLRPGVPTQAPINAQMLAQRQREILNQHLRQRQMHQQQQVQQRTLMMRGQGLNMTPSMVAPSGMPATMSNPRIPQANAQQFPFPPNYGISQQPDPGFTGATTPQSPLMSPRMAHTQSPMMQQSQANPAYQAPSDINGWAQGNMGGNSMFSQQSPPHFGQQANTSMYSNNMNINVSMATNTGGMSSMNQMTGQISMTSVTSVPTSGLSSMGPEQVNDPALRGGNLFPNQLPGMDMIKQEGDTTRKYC
# Beta-galactosidase, sequence (Q8VNN2 whole entry): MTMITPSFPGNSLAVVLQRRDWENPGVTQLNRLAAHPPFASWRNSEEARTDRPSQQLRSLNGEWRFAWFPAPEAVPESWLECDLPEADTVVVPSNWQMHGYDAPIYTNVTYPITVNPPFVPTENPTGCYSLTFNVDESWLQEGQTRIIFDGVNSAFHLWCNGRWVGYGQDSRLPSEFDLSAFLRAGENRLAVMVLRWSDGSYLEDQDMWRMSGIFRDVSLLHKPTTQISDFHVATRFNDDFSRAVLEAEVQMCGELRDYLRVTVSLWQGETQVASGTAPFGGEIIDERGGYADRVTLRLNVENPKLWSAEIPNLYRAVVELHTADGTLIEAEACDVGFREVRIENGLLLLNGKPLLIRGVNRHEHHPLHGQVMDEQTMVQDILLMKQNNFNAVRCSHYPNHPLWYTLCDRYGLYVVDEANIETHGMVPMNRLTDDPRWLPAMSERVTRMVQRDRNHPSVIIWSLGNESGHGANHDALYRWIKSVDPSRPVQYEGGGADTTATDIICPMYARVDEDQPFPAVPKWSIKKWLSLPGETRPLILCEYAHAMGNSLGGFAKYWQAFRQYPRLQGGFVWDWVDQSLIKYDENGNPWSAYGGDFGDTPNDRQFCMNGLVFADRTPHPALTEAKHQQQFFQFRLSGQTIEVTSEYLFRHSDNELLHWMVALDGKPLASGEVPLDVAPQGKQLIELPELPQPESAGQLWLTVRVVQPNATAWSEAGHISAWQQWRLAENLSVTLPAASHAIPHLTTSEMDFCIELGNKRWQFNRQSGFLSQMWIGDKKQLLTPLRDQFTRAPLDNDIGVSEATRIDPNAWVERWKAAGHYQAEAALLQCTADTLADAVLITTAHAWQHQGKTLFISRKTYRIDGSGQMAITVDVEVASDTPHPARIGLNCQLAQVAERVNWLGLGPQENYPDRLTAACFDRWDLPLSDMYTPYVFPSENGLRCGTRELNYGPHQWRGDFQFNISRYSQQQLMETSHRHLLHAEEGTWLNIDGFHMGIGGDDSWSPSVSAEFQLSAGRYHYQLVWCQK
structure (smiles),measurement,setting,value
O=C(Nc1nc(-c2ccc(S(=O)(=O)N3CCCCCC3)cc2)cs1)c1ccccc1,EC50,[1],13.3 µM (inactive)
same,EC50,[2],15.8 µM (not active)
same,EC50,[3],40.9 µM (not active)
CC(=O)c1c(C)[nH]c(C(=O)Nc2ccc(C)cn2)c1C,AC50,HEK293,1.7 µM (active)
COc1ccccc1Nc1ncc(C(=O)Nc2ccc(OC)c(OC)c2)c2ccccc12,IC50,[4],16.5 µM (not active)
same,IC50,[5],> 111 µM (not active)
CCCC(=O)Nc1ccc2nc(SCC(=O)Nc3ccc(N4CCOCC4)c(Cl)c3)sc2c1,AC50,Cytochrome P450 2D6,10 µM (inconclusive)
same,IC50,[4],> 148 µM (not active)
same,IC50,[5],> 111 µM (not active)
same,IC50,[6],4.33 µM (active)
same,IC50,[7],4.72 µM (active)
O[C@@H]1[C@@H](O)C=C2CCN3Cc4cc5c(cc4[C@H]1C23)OCO5 (stereo partly drawn),IC50,Vero [8],> 25 µM (active)
same,CC50,Vero [9],5.86 µM (active)
same,AC50,Paired box protein Pax-8,1.88 µM (active)
same,IC50,[10],> 80 µM (inactive)
COc1ccc(CN2CCN(C(c3ccc(F)cc3)c3ccc(F)cc3)CC2)c(OC)c1OC,CC50,[11],> 40 µM (active)
same,AC50,CAAX prenyl protease 2,4.67 µM (active)
CNC(=S)NNC(=O)c1sccc1OCc1cccc(C(F)(F)F)c1,IC50,[4],9.69 µM (active)
same,IC50,[5],> 111 µM (not active)
CCOC(=O)c1oc2ccccc2c1NC(=O)c1ccc(S(=O)(=O)N(C)C)cc1,IC50,[4],16.6 µM (not active)
same,IC50,[5],> 111 µM (not active)
CCCCOC(=O)C(C)Nc1n[nH]c(=S)[nH]c1=O (stereo not drawn),EC50,[1],17.3 µM (inactive)
same,EC50,[2],16.3 µM (not active)
same,EC50,[3],> 79.4 µM (not active)
O=C(CN1C(=O)c2ccccc2C1=O)NCC(=O)OCC(=O)c1cccc([N+](=O)[O-])c1,IC50,[12],17.4 µM (active)
same,EC50,Beta-galactosidase,> 40 µM (inactive)
CN(C)CCCNC(=O)/C=C/c1ccc(OCc2c(F)cccc2Cl)cc1,IC50,Vero [8],23.5 µM (active)
same,CC50,Vero [9],> 25 µM (active)
same,EC50,[13],8.47 µM (active)
same,EC50,[14],327 nM (active)
Cc1ccc(-c2nc3ccccc3[nH]2)cc1NC(=O)c1sc2cc(Cl)ccc2c1Cl,EC50,[13],> 60 µM (inconclusive)
same,IC50,[4],13 µM (not active)
same,IC50,[5],> 111 µM (not active)
same,EC50,[14],642 nM (active)
COc1ccc2nc(SC)c(C#N)cc2c1,EC50,[15],> 260 µM (inactive)
same,EC50,[1],14.1 µM (inactive)
same,EC50,[2],12.3 µM (not active)
same,EC50,[3],41.8 µM (not active)
COc1cc(/C=C/c2ccc3cccc(OC)c3n2)c(OC(C)=O)c([N+](=O)[O-])c1,IC50,[12],10.2 µM (active)
same,AC50,[16],7.38 µM (active)
same,EC50,Beta-galactosidase,26.9 µM (active)
Cc1ccc(OCC(=O)N2CCC(N3CCCCCC3)CC2)cc1,IC50,Prothrombin,> 50 µM (not active)
O=C(CSc1nnc(-c2ccccc2)c(-c2ccccc2)n1)Nc1ccc(Br)cn1,IC50,Prothrombin,> 50 µM (inconclusive)
Cc1onc(-c2ccccc2Cl)c1C(=O)Nc1nnc(-c2ccc(Br)cc2)s1,EC50,[1],> 79.4 µM (inactive)
same,EC50,[2],45 µM (not active)
same,EC50,[3],> 79.4 µM (not active)
O=C(Nc1ccc(N2CCOCC2)cc1)C1CCN(S(=O)(=O)c2ccccc2F)CC1,IC50,Prothrombin,> 50 µM (not active)
COc1cccc(/C=N/Nc2ncccc2[N+](=O)[O-])c1OC,AC50,HEK293,1.8 µM (active)
same,EC50,[17],5.27 µM (active)
same,EC50,[18],13.5 µM (active)
same,EC50,[19],3.32 µM (active)
same,EC50,BJ [20],15.6 µM (inconclusive)
same,EC50,BJ [21],> 150 µM (not active)
same,EC50,BJ [22],17.6 µM (active)
Cc1ccc(N2CC(C(=O)N/N=C/c3cccc([N+](=O)[O-])c3)CC2=O)cc1 (stereo not drawn),IC50,Prothrombin,> 50 µM (not active)
CC(=O)/N=c1\sc2nc3ccccc3nc2n1N(C(C)=O)C(C)=O,EC50,[1],25.2 µM (inactive)
same,EC50,[2],22.9 µM (not active)
same,EC50,[3],> 79.4 µM (not active)
